The results in this text go back to patent US20240245673A1, “Papain-like protease (PLpro) inhibitors” (Pfizer Inc., priority 2022, published 2024).

Structures are written as SMILES. pIC50: −log10 of the molar value. Some results are limits rather than exact numbers.

In the first experiment the target is SARS-CoV-2 Papain like protease (PLpro) (Severe acute respiratory syndrome coronavirus 2 (2019-nCoV) (SARS-CoV-2), UniProt P0DTD1). The experiment can be described thus: Papain Like Protease (PLpro) biochemical assay with profluorogenic substrate Z-RLRGG-AMC. The settings on record: IC50 (μM), SARS-CoV-2 PLpro 6.25 nM, 25 μM Z-RLRGG-AMC substrate, 60 minute reaction.
Take `CCn1cc(-c2cc(C(C)NC(=O)c3ccccc3C)c3ccccc3n2)cn1` (centres unmarked) [Example 110, N-{1-[2-(1-ethyl-1H-pyrazol-4-yl)quinolin-4-yl]ethyl}-2-methylbenzamide]: inhibition was half-maximal at 0.224 µM (IC50).

For `Cc1ccc(N2CC3CC(C2)N3C)cc1C(=O)N[C@H](C)c1cc(-c2cnn(C)c2)nc2ccccc12` [Example 252, 2-methyl-N—((R)-1-(2-(1-methyl-1H-pyrazol-4-yl)quinolin-4-yl)ethyl)-5-(6-methyl-3,6-diazabicyclo[3.1.1]heptan-3-yl)benzamide], the IC50 (usually the concentration that inhibits the measured activity by half) was determined as 0.005 µM.

The experiment is the same for the next values; noted with them: SARS-CoV-2 PLpro 6.25 nM, 25 μM Z-RLRGG-AMC substrate, 60 minute reaction; read-out: IC50.
Take `Cc1ccccc1C(=O)NC(C)c1cc(-c2cn(C(C)C)nc2C)nc2ccccc12` (centres unmarked) [Example 136, 2-methyl-N-(1-{2-[3-methyl-1-(propan-2-yl)-1H-pyrazol-4-yl]quinolin-4-yl}ethyl) benzamide]: the negative logarithm of the IC50 (pIC50) (usually −log10 of the IC50, conventionally taken in molar units) was 5.85.

Take `Cc1ccc(CN)cc1C(=O)N[C@H](C)c1cc(-c2cc(C(=O)N(C)C)c[nH]2)nc2ccccc12` [Example 56, 5-{4-[(1R)-1-{[5-(aminomethyl)-2-methylphenyl]formamido}ethyl]quinolin-2-yl}-N,N-dimethyl-1H-pyrrole-3-carboxamide]: the negative-log IC50 (pIC50) was 7.70.

For `CC(C)OC(=O)/C=C/C(=O)NNC(=O)CCc1ccccc1C(=O)N[C@H](C)c1cc(-c2cnn(C)c2)nc2ccccc12` [Example 233, isopropyl (R,E)-4-(2-(3-(2-((1-(2-(1-methyl-1H-pyrazol-4-yl)quinolin-4-yl)ethyl)carbamoyl)phenyl)propanoyl)hydrazineyl)-4-oxobut-2-enoate], the pIC50 is 8.52.

On to `Cc1ccccc1C(=O)NC(C)c1cc(-c2cc(C3CC3)nn2C)nc2ccccc12` (centres unmarked) [Example 107, N-{1-[2-(3-cyclopropyl-1-methyl-1H-pyrazol-5-yl)quinolin-4-yl]ethyl}-2-methylbenzamide], for which the negative-log IC50 (pIC50) is 6.12.

Take `Cc1cc(CN)ccc1C(=O)NC(C)c1cc(-c2cnn(C)c2)cc2ccccc12` (centres unmarked) [Example 5, 4-(aminomethyl)-2-methyl-N-(1-(3-(1-methyl-1H-pyrazol-4-yl)naphthalen-1-yl)ethyl)benzamide]: the negative logarithm of the IC50 (pIC50) was 7.06.

Take `Cc1cc(CSCc2nccn2C)ccc1C(=O)N[C@H](C)c1cc(-c2cnn(C)c2)nc2ccccc12` [Example 282, (R)-2-methyl-4-((((1-methyl-1H-imidazol-2-yl)methyl)thio)methyl)-N-(1-(2-(1-methyl-1H-pyrazol-4-yl)quinolin-4-yl)ethyl)benzamide]: the pIC50 was 8.22.

Turning to `Cc1cc(C(=O)NCc2cscn2)ccc1C(=O)NC1(c2cc(-c3cnn(C)c3)nc3ccccc23)CC1` [Example 254], the negative logarithm of the IC50 (pIC50) was 8.30.

`Cc1ccccc1C(=O)NC(C)c1cc(NC2CCOC2)nc2ccccc12` (centres unmarked) [Example 142, 2-methyl-N-(1-{2-[(oxolan-3-yl)amino]quinolin-4-yl}ethyl)benzamide]: the negative logarithm of the IC50 (pIC50) is 6.05.

For the molecule `Cc1cc(CNC(=O)c2ncc[nH]2)ccc1C(=O)NC(C)c1cc(-c2cnn(C)c2)cc2ccccc12` (centres unmarked) [Example 62, N-(3-methyl-4-((1-(3-(1-methyl-1H-pyrazol-4-yl)naphthalen-1-yl)ethyl)carbamoyl)benzyl)-1H-imidazole-2-carboxamide], the pIC50 is 7.41.

For the molecule `Cc1ccccc1C(=O)N[C@H](C)c1cc(NC2COC2)nc2ccccc12` [Example 37, (R)-2-methyl-N-(1-(2-(oxetan-3-ylamino)quinolin-4-yl)ethyl)benzamide], the pIC50 is 5.00.

For the molecule `Cc1ccccc1C(=O)NC(C)c1cc(-c2cnn(C)n2)nc2ccccc12` (centres unmarked) [Example 135, 2-methyl-N-{1-[2-(2-methyl-2H-1,2,3-triazol-4-yl)quinolin-4-yl]ethyl}benzamide], the pIC50 was 6.07.

Consider `COC(=O)c1c[nH]c(-c2cc([C@@H](C)NC(=O)c3cc(CN)ccc3C)c3ccccc3n2)c1` [Example 19, methyl(R)-5-(4-(1-(5-(aminomethyl)-2-methylbenzamido)ethyl)quinolin-2-yl)-1H-pyrrole-3-carboxylate], for which the negative-log IC50 (pIC50) was 7.82.

Consider `Cc1cc(CN(C)C(=O)c2cscn2)ccc1C(=O)N[C@H](C)c1cc(-c2cnn(C)c2)nc2ccccc12` [Example 264, (R)-N-methyl-N-(3-methyl-4-((1-(2-(1-methyl-1H-pyrazol-4-yl)quinolin-4-yl)ethyl)carbamoyl)benzyl)thiazole-4-carboxamide], for which the negative-log IC50 (pIC50) is 7.66.

Regarding `COC(=O)c1c[nH]c(-c2cc(C(C)NC(=O)c3cc(N4CCN(C)CC4)ccc3C)c3ccccc3c2)c1` (centres unmarked) [Example 228, methyl 5-(4-(1-(2-methyl-5-(4-methylpiperazin-1-yl)benzamido)ethyl)naphthalen-2-yl)-1H-pyrrole-3-carboxylate], the pIC50 is 8.15.

Turning to `Cc1ccc(CN)cc1C(=O)N[C@H](C)c1cc(-c2cnn(C)c2)cc2ccccc12` (single isomer, unassigned) [Example 8], the pIC50 was 7.60.

Take `C[C@@H](NC(=O)c1ccccc1CCC(=O)NNC(=O)/C=C/C(=O)N(C)C)c1cc(-c2cnn(C)c2)nc2ccccc12` [Example 234, (R,E)-2-(3-(2-(4-(dimethylamino)-4-oxobut-2-enoyl)hydrazineyl)-3-oxopropyl)-N-(1-(2-(1-methyl-1H-pyrazol-4-yl)quinolin-4-yl)ethyl)benzamide]: the negative-log IC50 (pIC50) was 6.89.

Regarding `CCn1cc(-c2cc(C(C)NC(=O)c3ccccc3C)c3ccccc3n2)c(C)n1` (centres unmarked) [Example 115, N-{1-[2-(1-ethyl-3-methyl-1H-pyrazol-4-yl)quinolin-4-yl]ethyl}-2-methylbenzamide], the pIC50 is 5.97.

On to `Cc1ccccc1C(=O)NC(C)c1cc(-c2[nH]ncc2C)nc2ccccc12` (centres unmarked) [Example 102], for which the negative-log IC50 (pIC50) is 6.04.

In the case of `Cc1ccc(N2CC3CC2CN3)cc1C(=O)N[C@H](C)c1cc(-c2cnn(C)c2)nc2ccccc12` (some centres unmarked) [Example 255], the pIC50 is 7.72.

Consider `Cc1cc(CNCc2cscn2)ccc1C(=O)NC(C)c1cc(-c2cnn(C)c2)cc2ccccc12` (centres unmarked) [Example 7, 2-methyl-N-(1-(3-(1-methyl-1H-pyrazol-4-yl)naphthalen-1-yl)ethyl)-4-(((thiazol-4-ylmethyl)amino)methyl)benzamide], for which the pIC50 is 7.89.

Turning to `CNC(=O)c1c[nH]c(-c2cc([C@@H](C)NC(=O)c3cc(CN)ccc3C)c3ccccc3n2)c1` [Example 22, (R)-5-(4-(1-(5-(aminomethyl)-2-methylbenzamido)ethyl)quinolin-2-yl)-N-methyl-1H-pyrrole-3-carboxamide], the pIC50 is 7.77.

As for `CCOC(=O)/C=C/C(=O)NNC(=O)CCc1ccccc1C(=O)N[C@H](C)c1cc(-c2cnn(C)c2)nc2ccccc12` [Example 232, ethyl (R,E)-4-(2-(3-(2-((1-(2-(1-methyl-1H-pyrazol-4-yl)quinolin-4-yl)ethyl)carbamoyl)phenyl)propanoyl)hydrazineyl)-4-oxobut-2-enoate], the pIC50 was 8.52.

Consider `COCC(OCc1cscn1)c1ccc(C(=O)NC2(c3cc(-c4cnn(C)c4)cc4nc(C)ccc34)CC2)c(C)c1` (centres unmarked) [Example 353, 4-(2-methoxy-1-(thiazol-4-ylmethoxy)ethyl)-2-methyl-N-(1-(2-methyl-7-(1-methyl-1H-pyrazol-4-yl)quinolin-5-yl)cyclopropyl)benzamide], for which the pIC50 is greater than 9.00.

For the molecule `Cc1ccccc1C(=O)NC(C)c1cc(NCC2CCN(S(C)(=O)=O)CC2)nc2ccccc12` (centres unmarked) [Example 150], the pIC50 was 5.97.
